From patent US20250215039A1, “NUCLEOSIDES FOR TREATING CANCER” (PRIMEFOUR THERAPEUTICS, INC., priority 2022, published 2025)
pIC50: −log10 of the molar value. Like-named read-outs stand apart in the source and are kept apart here.

Tested on: cancer cell lines
Assay: Cancer cell proliferation activity (CellTiterGlo, 72 h)
Format: cell-based
Conditions: 72 h, 72 h, read-out: IC50 cell proliferation
Procedure, shortened: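 Readout is CellTiterGlo luminescence after 72 h compound exposure (0.1% DMSO final), started one day post-seeding, at 37 °C.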

**Q.** C[C@]1(CO)O[C@@H](n2ccc(N)nc2=O)[C@@H](O)[C@@H]1O [Cpd. No. 193, 4-amino-1-((2R,3S,4S,5R)-3,4-dihydroxy-5-(hydroxymethyl)-5-methyltetrahydrofuran-2-yl)pyrimidin-2(1H)-one] was tested. Which pIC50 (5637 (bladder)) did it give?
**A.** < 4.30

**Q.** And the pIC50 (CLS439 (bladder))?
**A.** < 4.30

**Q.** And the pIC50 (HS729 (muscle))?
**A.** 5.23

**Q.** And the pIC50 (J82 (bladder))?
**A.** 5.26

**Q.** And the pIC50 (JAR (placenta))?
**A.** < 4.30

**Q.** And the pIC50 (MT3 (breast))?
**A.** 6.24

**Q.** And the pIC50 (PANCI (pancreas))?
**A.** 5.44

**Q.** And the pIC50 (PC3 (prostate))?
**A.** 5.69

**Q.** What about the pIC50 (RD (muscle)) of the same molecule?
**A.** < 4.30

**Q.** And the pIC50 (T24 (bladder))?
**A.** 5.63

**Q.** What about the pIC50 (Homo sapiens, 22Rv1, 72 h, 22RV1 (prostate)) of the same molecule?
**A.** 5.24

**Q.** What about the pIC50 (Homo sapiens, 786-0, 72 h, 786O (kidney)) of the same molecule?
**A.** 5.02

**Q.** What about the pIC50 (Homo sapiens, A204, 72 h, A204 (muscle)) of the same molecule?
**A.** 7.22

**Q.** And the pIC50 (Homo sapiens, A549, 72 h, A549 (lung))?
**A.** 5.63

**Q.** What about the pIC50 (Homo sapiens, A673, 72 h, A673 (bone)) of the same molecule?
**A.** 5.49

**Q.** And the pIC50 (Homo sapiens, A2780, 72 h, A2780 (ovary))?
**A.** 5.46

**Q.** And the pIC50 (Homo sapiens, A-375, 72 h, A375 (skin))?
**A.** 5.44

**Q.** And the pIC50 (Homo sapiens, A-431, 72 h, A431 (skin))?
**A.** 5.60

**Q.** And the pIC50 (Homo sapiens, ACHN, ACHN (kidney))?
**A.** 5.55

**Q.** And the pIC50 (Homo sapiens, ASPC1, 72 h, ASPC1 (pancreas))?
**A.** < 4.30

**Q.** And the pIC50 (Homo sapiens, BT-20, 72 h, BT20 (breast))?
**A.** 5.51

**Q.** What about the pIC50 (Homo sapiens, BXPC-3, 72 h, BXPC3 (pancreas)) of the same molecule?
**A.** 5.37

**Q.** And the pIC50 (Homo sapiens, C-33-A, C33A (endometrial))?
**A.** 5.84

**Q.** What about the pIC50 (Homo sapiens, CAKI-1, 72 h, CAKI1 (kidney)) of the same molecule?
**A.** 5.80

**Q.** What about the pIC50 (Homo sapiens, COLO 205, 72 h, COLO205 (colon)) of the same molecule?
**A.** 5.80

**Q.** And the pIC50 (Homo sapiens, COLO-678, 72 h, COLO678 (colon))?
**A.** < 4.30

**Q.** And the pIC50 (Homo sapiens, Ca-Ski, CASKI (endometrial))?
**A.** 5.51

**Q.** And the pIC50 (Homo sapiens, Caco-2, 72 h, CACO2 (colon))?
**A.** < 4.30

**Q.** And the pIC50 (Homo sapiens, Calu-6, 72 h, CALU6 (lung))?
**A.** 5.42

**Q.** What about the pIC50 (Homo sapiens, DLD-1, 72 h, DLD1 (colon)) of the same molecule?
**A.** 5.40

**Q.** What about the pIC50 (Homo sapiens, DU-145, 72 h, DU145 (prostate)) of the same molecule?
**A.** 5.85

**Q.** What about the pIC50 (Homo sapiens, EFO-21, 72 h, EFO21 (ovary)) of the same molecule?
**A.** 5.34

**Q.** What about the pIC50 (Homo sapiens, EJ-28, 72 h, EJ28 (bladder)) of the same molecule?
**A.** 5.35

**Q.** And the pIC50 (Homo sapiens, Granta-519, 72 h, GRANTA-519 (hematological))?
**A.** 6.05

**Q.** And the pIC50 (Homo sapiens, HCT-15, 72 h, HCT15 (colon))?
**A.** 5.67

**Q.** What about the pIC50 (Homo sapiens, HCT-116, 72 h, HCT116 (colon)) of the same molecule?
**A.** 5.55

**Q.** What about the pIC50 (Homo sapiens, HEK293, 72 h, HEK293 (kidney)) of the same molecule?
**A.** < 4.30

**Q.** And the pIC50 (Homo sapiens, HL-60, 72 h, HL-60 (hematological))?
**A.** 5.79

**Q.** What about the pIC50 (Homo sapiens, HT-29, 72 h, HT29 (colon)) of the same molecule?
**A.** < 4.30

**Q.** What about the pIC50 (Homo sapiens, HT-1080, 72 h, HT1080 (connective tissue)) of the same molecule?
**A.** 5.56

**Q.** What about the pIC50 (Homo sapiens, HeLa, HELA (endometrial)) of the same molecule?
**A.** < 4.30

**Q.** What about the pIC50 (Homo sapiens, HepG2, 72 h, HEPG2 (liver)) of the same molecule?
**A.** 5.45

**Q.** And the pIC50 (Homo sapiens, Hs-578T, HS578T (breast))?
**A.** < 4.30

**Q.** What about the pIC50 (Homo sapiens, IGROV-1, 72 h, IGROV1 (ovary)) of the same molecule?
**A.** 5.67

**Q.** What about the pIC50 (Homo sapiens, IMR-90, 72 h, IMR90 (lung)) of the same molecule?
**A.** 5.38

**Q.** And the pIC50 (Homo sapiens, JEG-3, 72 h, JEG3 (placenta))?
**A.** < 4.30

**Q.** What about the pIC50 (Homo sapiens, JIMT-1, 72 h, JIMT1 (breast)) of the same molecule?
**A.** 5.55

**Q.** And the pIC50 (Homo sapiens, K562, 72 h, K-562 (hematological))?
**A.** < 4.30

**Q.** And the pIC50 (Homo sapiens, Kasumi 1, 72 h, KASUMI-1 (hematological))?
**A.** 6.43

**Q.** And the pIC50 (Homo sapiens, L-363, 72 h, L-363 (hematological))?
**A.** < 4.30

**Q.** And the pIC50 (Homo sapiens, LoVo, LOVO (colon))?
**A.** 5.63

**Q.** What about the pIC50 (Homo sapiens, MCF7, 72 h, MCF7 (breast)) of the same molecule?
**A.** < 4.30

**Q.** And the pIC50 (Homo sapiens, MDA-MB-231, 72 h, MDAMB231 (breast))?
**A.** 5.84

**Q.** What about the pIC50 (Homo sapiens, MDA-MB-435, 72 h, MDAMB435 (skin)) of the same molecule?
**A.** 5.32

**Q.** And the pIC50 (Homo sapiens, MDA-MB-436, 72 h, MDAMB436 (breast))?
**A.** < 4.30

**Q.** And the pIC50 (Homo sapiens, MDA-MB-468, 72 h, MDAMB468 (breast))?
**A.** < 4.30

**Q.** And the pIC50 (Homo sapiens, MG-63, 72 h, MG63 (bone))?
**A.** < 4.30

**Q.** What about the pIC50 (Homo sapiens, MHH-ES-1, 72 h, MHHES1 (bone)) of the same molecule?
**A.** 5.65

**Q.** And the pIC50 (Homo sapiens, MIA PaCa-2, 72 h, MIAPACA2 (pancreas))?
**A.** < 4.30

**Q.** And the pIC50 (Homo sapiens, MINO, MINO (hematological))?
**A.** 6.60

**Q.** And the pIC50 (Homo sapiens, MV4-11, 72 h, MV4-11 (hematological))?
**A.** 5.32

**Q.** And the pIC50 (Homo sapiens, NCI-H23, 72 h, NCI-H23 (lung))?
**A.** 5.10

**Q.** And the pIC50 (Homo sapiens, NCI-H82, 72 h, NCIH82 (lung))?
**A.** 5.47

**Q.** What about the pIC50 (Homo sapiens, NCI-H292, 72 h, NCIH292 (lung)) of the same molecule?
**A.** 5.24

**Q.** And the pIC50 (Homo sapiens, NCI-H460, 72 h, NCIH460 (lung))?
**A.** 5.55

**Q.** What about the pIC50 (Homo sapiens, OVCAR-3, 72 h, OVCAR3 (ovary)) of the same molecule?
**A.** 5.56

**Q.** And the pIC50 (Homo sapiens, OVCAR-4, 72 h, OVCAR4 (ovary))?
**A.** < 4.30

**Q.** What about the pIC50 (Homo sapiens, PLC-PRF-5, 72 h, PLCPRF5 (liver)) of the same molecule?
**A.** < 4.30

**Q.** And the pIC50 (Homo sapiens, Panc1005, 72 h, PANC1005 (pancreas))?
**A.** < 4.30

**Q.** And the pIC50 (Homo sapiens, Ramos, RAMOS (hematological))?
**A.** 5.52

**Q.** What about the pIC50 (Homo sapiens, SAOS-2, 72 h, SAOS2 (bone)) of the same molecule?
**A.** 5.95

**Q.** And the pIC50 (Homo sapiens, SF-268, 72 h, SF268 (brain))?
**A.** 5.56

**Q.** What about the pIC50 (Homo sapiens, SF-295, 72 h, SF295 (brain)) of the same molecule?
**A.** < 4.30

**Q.** What about the pIC50 (Homo sapiens, SK-BR-3, 72 h, SKBR3 (breast)) of the same molecule?
**A.** 5.46

**Q.** What about the pIC50 (Homo sapiens, SK-HEP1, 72 h, SKHEP1 (liver)) of the same molecule?
**A.** 5.54

**Q.** And the pIC50 (Homo sapiens, SK-LMS-1, 72 h, SKLMS1 (uterus))?
**A.** < 4.30

**Q.** What about the pIC50 (Homo sapiens, SK-MEL-5, 72 h, SKMEL5 (skin; SKMELS [sic] in Table 9E)) of the same molecule?
**A.** < 4.30

**Q.** And the pIC50 (Homo sapiens, SK-MEL-28, 72 h, SKMEL28 (skin))?
**A.** < 4.30

**Q.** What about the pIC50 (Homo sapiens, SK-N-AS, SKNAS (brain)) of the same molecule?
**A.** 5.22

**Q.** And the pIC50 (Homo sapiens, SK-N-SH, SKNSH (brain))?
**A.** 5.32

**Q.** What about the pIC50 (Homo sapiens, SK-OV-3, 72 h, SKOV3 (ovary)) of the same molecule?
**A.** < 4.30

**Q.** What about the pIC50 (Homo sapiens, SNB-75, 72 h, SNB75 (brain)) of the same molecule?
**A.** 5.35

**Q.** And the pIC50 (Homo sapiens, SU-DHL10, 72 h, SU-DHL-10 (hematological))?
**A.** 5.49

**Q.** And the pIC50 (Homo sapiens, SU-DHL-6, 72 h, SU-DHL-6 (hematological))?
**A.** 5.53

**Q.** And the pIC50 (Homo sapiens, SW-620, 72 h, SW620 (colon))?
**A.** < 4.30

**Q.** What about the pIC50 (Homo sapiens, TE-671, 72 h, TE671 (muscle)) of the same molecule?
**A.** 5.31

**Q.** And the pIC50 (Homo sapiens, THP-1, 72 h, THP-1 (hematological))?
**A.** 5.53

**Q.** And the pIC50 (Homo sapiens, U2OS, U20S (bone; U2OS in Table 9E))?
**A.** < 4.30

**Q.** What about the pIC50 (Homo sapiens, U-87 MG, U87MG (brain)) of the same molecule?
**A.** 5.97

**Q.** What about the pIC50 (Homo sapiens, UMUC3, 72 h, UMUC3 (bladder)) of the same molecule?
**A.** 5.38

**Q.** What about the pIC50 (Homo sapiens, UO-31, 72 h, UO31 (kidney)) of the same molecule?
**A.** 5.41

**Q.** And the pIC50 (Homo sapiens, WSU-NHL, WSU-NHL (hematological))?
**A.** 6.31

**Q.** And the pIC50 (NCI-H358M, NCIH358M (lung))?
**A.** 5.60

**Q.** And the pIC50 (PBMC, PBMC (hematological))?
**A.** < 4.30

**Q.** And the pIC50 (RD-ES, RDES (bone))?
**A.** < 4.30
